ChEMBL document CHEMBL1156679, “Inhibition of immune complex-mediated neutrophil oxidative metabolism: a pharmacophore model for 3-phenylcoumarin derivatives using GRIND-based 3D-QSAR and 2D-QSAR procedures” (Eur J Med Chem, 2008)

What was measured:
Neutrophil [1] = assay: Inhibition of immune complex-stimulated neutrophil oxidative metabolism in New Zealand white rabbit neutrophils assessed as ROS generation at 50 uM after 30 mins by lucigenin enhanced chemiluminescence assay; format: functional; conditions: Oryctolagus cuniculus, 0.5 h
Neutrophil [2] = assay: Inhibition of immune complex-stimulated neutrophil oxidative metabolism in New Zealand white rabbit neutrophils assessed as ROS generation at 50 uM after 30 mins by luminol enhanced chemiluminescence assay; format: functional; conditions: Oryctolagus cuniculus, 0.5 h
Neutrophil [3] = assay: Inhibition of immune complex-stimulated neutrophil oxidative metabolism in New Zealand white rabbit neutrophils assessed as ROS generation after 30 mins by lucigenin enhanced chemiluminescence assay; format: functional, cell-based; conditions: Oryctolagus cuniculus, 0.5 h
Neutrophil [4] = assay: Inhibition of immune complex-stimulated neutrophil oxidative metabolism in New Zealand white rabbit neutrophils assessed as ROS generation after 30 mins by luminol enhanced chemiluminescence assay; format: functional, cell-based; conditions: Oryctolagus cuniculus, 0.5 h
[5] = Cytotoxicity against New Zealand white rabbit neutrophils assessed as cell viability at 50 uM after 30 mins by trypan blue exclusion test; format: cell-based, Oryctolagus cuniculus, Neutrophil; conditions: read-out: Activity
[6] = Cytotoxicity against New Zealand white rabbit neutrophils assessed as LDH release at 50 uM after 30 mins by spectrophotometry; format: cell-based, Oryctolagus cuniculus; conditions: neutrophil, 0.5 h

Structure (SMILES) | inhibition at 50 µM (Neutrophil [1]) | inhibition at 50 µM (Neutrophil [2]) | IC50 (Neutrophil [3]; read-out: IC50) | IC50 (Neutrophil [3]; read-out: pIC50 (converted)) | IC50 (Neutrophil [4]; read-out: IC50) | viability at 0.5 h, 50 µM [5] | Activity [6] | IC50 (Neutrophil [4]; read-out: pIC50 (converted))
COC(=O)Oc1ccc2cc(-c3ccc4c(c3)OCO4)c(=O)oc2c1 | 67.1% | 7.9% | 7.3 µM | ≥ 7.24 µM | > 50 µM | 94.3% | 13.8% | 
O=c1oc2ccc(O)cc2cc1-c1ccc(O)cc1 | 95.7% | 69.8% | 4.3 µM | 4.37 µM | 29.6 µM | 89.5% | 18.3% | 29.5 µM
O=c1oc2cc(O)c(O)cc2cc1-c1ccc(O)c(O)c1 | 94.9% | 92.4% | 5.2 µM | 5.25 µM | 13.4 µM | 92% | 10.5% | 13.5 µM
COC(=O)Oc1ccc(-c2cc3cc(OC(=O)OC)c(OC(=O)OC)cc3oc2=O)cc1OC(=O)OC | 99.9% | 99.9% | 0.4 µM | 0.363 µM | 0.4 µM | 88.8% | 20.7% | 0.389 µM
O=c1oc2ccccc2cc1-c1ccccc1 | 27.9% | 9% | > 50 µM |  | > 50 µM | 90.3% | 17.1% | 
O=c1oc2ccc(O)cc2cc1-c1ccc(O)c(O)c1 | 98.7% | 99.2% | 4.4 µM | 4.47 µM | 4.9 µM | 92.8% | 11.9% | 4.9 µM
O=c1c(O)c(-c2ccc(O)c(O)c2)oc2cc(O)cc(O)c12 [QUERCETIN] | 99.9% | 99.9% | 4.7 µM |  | 2.4 µM | 93% | 10.9% | 
COC(=O)Oc1ccc(-c2cc3cc(OC(=O)OC)ccc3oc2=O)cc1 | 92.5% | 60.3% | 4 µM | 3.98 µM | 27.4 µM | 92.5% | 11.6% | 27.5 µM
O=c1oc2ccc(O)cc2cc1-c1ccccc1 | 83.5% | 21.8% | 8 µM | 7.94 µM | > 50 µM | 92.3% | 10.7% | 
COC(=O)Oc1ccc2oc(=O)c(-c3ccc(OC(=O)OC)c(OC(=O)OC)c3)cc2c1 | 97.5% | 92.3% | 1.8 µM | 1.78 µM | 2 µM | 93.3% | 9.3% | 2.04 µM
COC(=O)Oc1cc2cc(-c3ccc4c(c3)OCO4)c(=O)oc2cc1OC(=O)OC | 99% | 99.4% | 0.7 µM | 0.692 µM | 0.7 µM | 95% | 11.9% | 0.661 µM
O=c1oc2ccc(O)cc2cc1-c1ccc2c(c1)OCO2 | 83.5% | 23.2% | 5.6 µM | 5.62 µM | > 50 µM | 93.8% | 9% | 
COC(=O)Oc1ccc2oc(=O)c(-c3ccccc3)cc2c1 | 80.5% | 50.5% | 7.4 µM | 7.41 µM | 31.2 µM | 93.8% | 11.3% | 30.9 µM
O=c1oc2ccc(O)cc2cc1-c1ccccc1O | 99.9% | 99% | 2.5 µM | 2.51 µM | 2.8 µM | 94.8% | 9.8% | 2.82 µM
O=c1oc2cc(O)c(O)cc2cc1-c1ccc2c(c1)OCO2 | 99.6% | 99.8% | 0.7 µM | 0.724 µM | 0.7 µM | 93.2% | 15.3% | 
O=c1oc2ccccc2cc1-c1ccc2c(c1)OCO2 | 5.7% | 10.1% | > 50 µM |  | > 50 µM | 96% | 11.9% | 
COC(=O)Oc1ccc2oc(=O)c(-c3ccc4c(c3)OCO4)cc2c1 | 68% | 13.7% | 5.4 µM | 5.37 µM | > 50 µM | 95.5% | 11.4% | 
COC(=O)Oc1cccc(-c2cc3cc(OC(=O)OC)ccc3oc2=O)c1 | 82.1% | 66.3% | 6.9 µM | 6.92 µM | 21.7 µM | 94% | 9.3% | 21.9 µM
COC(=O)Oc1ccc2oc(=O)c(-c3ccccc3OC(=O)OC)cc2c1 | 96.5% | 94.6% | 2.6 µM | 2.57 µM | 2.9 µM | 90.3% | 14.6% | 2.88 µM
O=c1oc2ccc(O)cc2cc1-c1cccc(O)c1 | 94.1% | 31.7% | 5.2 µM | 5.25 µM | > 50 µM | 93.8% | 11.2% | 
O=c1oc2cc(O)ccc2cc1-c1ccc2c(c1)OCO2 | 79.4% | 17.5% | 8.6 µM | 8.51 µM | > 50 µM | 94.3% | 11.1% | 
